Experimental data reported in patent US9737075B2, “Synergistic benzoxaborole-containing anti-fungicidal composition” (The Penn State Research Foundation, priority 2015, dated 2017).
Converted amounts (≈) assume the structure as drawn. Where two headings read alike, the source gives them in different places.

How the values were obtained:
Type in all cases: cell-based
Magnaporthe grisea = assay: microbe, parasite or virus in culture; conditions: for Independent MIC: Magnaporthe grisea, individual antifungal, 25% PDB, about 25° C., 72 hours, range over N independent triplicate studies; for MIC: Pyricularia oryzae, 72 h, read-out: Independent MIC
Botrytis cinerea 10-1728 = assay: Broth microdilution MIC of individual antifungals; conditions: Botrytis cinerea 10-1728, individual antifungal, 25% PDB, about 25° C., 72 hours, range over N independent triplicate studies; for MIC: 101728, read-out: Independent MIC
Aspergillus niger = assay: Broth microdilution MIC of individual antifungals; conditions: for MIC: read-out: Independent MIC
Mucor sp. = assay: Broth microdilution MIC of individual antifungals; conditions: individual antifungal, 25% PDB, about 25° C., 72 hours, range over N independent triplicate studies
Aureobasidium pullulans = assay: Broth microdilution MIC of individual antifungals; conditions: read-out: Independent MIC
Botrytis cinerea B17 = assay: Broth microdilution MIC of individual antifungals; conditions: Botrytis cinerea B17; individual antifungal, 25% PDB, about 25° C., 72 hours; range over N independent triplicate studies; read-out: Independent MIC
Alternaria solani = assay: Broth microdilution MIC of individual antifungals; conditions: individual antifungal, 25% PDB, about 25° C., 72 hours, range over N independent triplicate studies; for MIC: read-out: Independent MIC
Aspergillus fumigatus = assay: Broth microdilution MIC of individual antifungals; conditions: individual antifungal, 25% PDB, about 25° C., 72 hours, range over N independent triplicate studies; for MIC: read-out: Independent MIC
Stachybotrys chartarum = assay: Broth microdilution MIC of individual antifungals; conditions: individual antifungal, 25% PDB, about 25° C., 72 hours, range over N independent triplicate studies, read-out: Independent MIC
Rhizopus sp. = assay: Broth microdilution MIC of individual antifungals; conditions: for MIC: Rhizopus, 72 h, read-out: Independent MIC
Sclerotinia homoeocarpa = assay: Broth microdilution MIC of individual antifungals; conditions: Sclerotinia homoeocarpa, individual antifungal, 25% PDB, about 25° C., 72 hours, range over N independent triplicate studies; for MIC: Clarireedia homoeocarpa, read-out: Independent MIC
Phytophthora pini = assay: Broth microdilution MIC of individual antifungals; conditions: individual antifungal, 25% PDB, about 25° C., 72 hours, range over N independent triplicate studies
Aspergillus flavus = assay: Broth microdilution MIC of individual antifungals; conditions: individual antifungal, 25% PDB, about 25° C., 72 hours, range over N independent triplicate studies, read-out: Independent MIC
Penicillium chrysogenum = assay: Broth microdilution MIC of individual antifungals; conditions: individual antifungal, 25% PDB, about 25° C., 72 hours, range over N independent triplicate studies, read-out: Independent MIC
[1] = tested on: Colletotrichum orbiculare; assay: Broth microdilution MIC of individual antifungals; conditions: individual antifungal, 25% PDB, about 25° C., 72 hours, range over N independent triplicate studies; for MIC: read-out: Independent MIC
Fusarium graminearum = assay: microbe, parasite or virus in culture; conditions: Fusarium graminearum; for MIC: 72 h, read-out: Independent MIC
[2] = tested on: Mycosphaerella zeae-maydis; assay: Broth microdilution MIC of individual antifungals; conditions: Didymella maydis, individual antifungal, 25% PDB, about 25° C., 72 hours, range over N independent triplicate studies
Fusarium verticillioides = assay: Broth microdilution MIC of individual antifungals; conditions: individual antifungal, 25% PDB, about 25° C., 72 hours, range over N independent triplicate studies, read-out: Independent MIC
Candida albicans = assay: Broth microdilution MIC of individual antifungals; conditions: individual antifungal, 25% PDB, about 25° C., 72 hours, range over N independent triplicate studies, read-out: Independent MIC
[3] = tested on: Fusarium solani f. sp. pisi (MP VI); assay: Broth microdilution MIC of individual antifungals; conditions: Fusarium solani f. sp. pisi (MP VI); individual antifungal, 25% PDB, about 25° C., 72 hours; range over N independent triplicate studies; read-out: Independent MIC
[4] = individual antifungal, 25% PDB, about 25° C., 72 hours, range over N independent triplicate studies
[5] = Rhizopus sp., individual antifungal, 25% PDB, about 25° C., 72 hours, range over N independent triplicate studies

SMILES	MIC (Magnaporthe grisea)	MIC (Mucor sp.)	MIC (Alternaria solani)	MIC (Botrytis cinerea 10-1728)	MIC (Aspergillus fumigatus)	MIC (Aspergillus niger; [4])	MIC (Sclerotinia homoeocarpa)	MIC (Rhizopus sp.; [5])	further results
Cn1cc(C(=O)Nc2ccccc2-c2cc(F)c(F)c(F)c2)c(C(F)F)n1 [Fluxapyroxad, fluxapyroxad]	–	–	–	–	–	–	–	–	Independent MIC (Magnaporthe grisea): 3.13 µg/mL; Independent MIC (Botrytis cinerea 10-1728): 6.25 µg/mL; Independent MIC (Aspergillus niger; [4]): (0.39-0.4) μg/mL
CC(C)NC(=O)N1CC(=O)N(c2cc(Cl)cc(Cl)c2)C1=O [Iprodione, ipordione]	12.5 µg/mL (≈ 37.9 µM)	1.56 to 6.25 µg/mL	3.12 to 6.25 µg/mL	15 to 25 µg/mL	12.5 to 50 µg/mL	50 to 100 µg/mL	4 to 10 µg/mL	–	MIC (Aureobasidium pullulans; 72 h): 12.5 to 50 µg/mL; MIC (Botrytis cinerea B17): 16 to 20 µg/mL; MIC (Stachybotrys chartarum): 25 to 30 µg/mL; MIC (Rhizopus sp.): 3.12 to 12.5 µg/mL
C[C@H]1O[C@H](O[C@H]2[C@H](O)[C@@H](O)[C@@H](O)[C@H](O)[C@@H]2O)[C@@H](N)C[C@@H]1NC(=N)C(=O)O [Kasugamycin]	–	–	–	–	–	–	–	–	Independent MIC (Alternaria solani): (100-200) μg/mL; Independent MIC (Botrytis cinerea 10-1728): 200 µg/mL; Independent MIC (Phytophthora pini): 200 µg/mL; Independent MIC (Sclerotinia homoeocarpa): 100 µg/mL
CC#Cc1cc(C)nc(Nc2ccccc2)n1 [Mepanipyrim, mepanipyrim]	–	–	–	50 to 100 µg/mL	0.05 to 0.1 µg/mL	25 µg/mL	0.098 to 0.19 µg/mL	50 µg/mL	MIC (Aspergillus flavus): 0.75 µg/mL; MIC (Penicillium chrysogenum): 0.025 to 0.048 µg/mL
COCC(=O)N(c1c(C)cccc1C)C(C)C(=O)OC (stereo not shown) [Metalaxyl, metalaxyl]	–	–	–	–	400 µg/mL	400 µg/mL	128 to 200 µg/mL	400 µg/mL	MIC (Botrytis cinerea B17): 50 to 64 µg/mL; MIC (Aspergillus flavus): 400 µg/mL
CC(C)CC(C)c1sccc1NC(=O)c1cn(C)nc1C(F)(F)F (stereo not shown) [Penthiopyrad, penthiopyrad]	1.56 µg/mL (≈ 4.34 µM)	–	–	15 to 25 µg/mL	–	–	–	–	MIC (Aspergillus flavus): 100 µg/mL; MIC [1]: 50 to 100 µg/mL; MIC (Aspergillus niger; 72 h): 0.78 to 1.56 µg/mL
CO/C=C(/C(=O)OC)c1ccccc1COc1cccc(C(F)(F)F)n1 [Picoxystrobin, picoxystrobin]	–	–	–	–	–	–	–	–	Independent MIC (Magnaporthe grisea): (3.13-6.25) μg/mL; Independent MIC (Mucor sp.): (50-200) μg/mL; Independent MIC (Botrytis cinerea 10-1728): (100-200) μg/mL; Independent MIC (Aspergillus fumigatus): (25-50) μg/mL; Independent MIC (Fusarium graminearum; [4]): (200-400) μg/mL; Independent MIC (Sclerotinia homoeocarpa): 1.56 µg/mL
C=CCOC1=NS(=O)(=O)c2ccccc21 [Probenazole, probenazole]	100 µg/mL (≈ 448 µM)	200 µg/mL	200 µg/mL	100 µg/mL	–	–	50 to 100 µg/mL	–	MIC [2]: 200 µg/mL; MIC (Phytophthora pini): 200 µg/mL
CCCOC(=O)NCCCN(C)C [Propamocarb, propamocarb]	–	200 to 400 µg/mL	100 to 200 µg/mL	100 to 400 µg/mL	–	–	200 µg/mL	–	–
CCCC1COC(Cn2cncn2)(c2ccc(Cl)cc2Cl)O1 (stereo not shown) [Propiconazole, propiconazole]	1.56 µg/mL (≈ 4.56 µM)	50 µg/mL	100 to 160 µg/mL	1.25 to 3.12 µg/mL	2.5 to 6.25 µg/mL	12.5 µg/mL	0.5 to 1 µg/mL	12.5 to 24 µg/mL	MIC [2]: 3 to 6.25 µg/mL; MIC (Aureobasidium pullulans; 72 h): 1.56 to 6 µg/mL; MIC (Botrytis cinerea B17): 1 to 2 µg/mL; MIC (Fusarium verticillioides): 0.5 to 2 µg/mL; MIC (Aspergillus flavus): 6.25 to 12.5 µg/mL; MIC [1]: 3.12 µg/mL; MIC (Fusarium graminearum): 12.5 to 25 µg/mL (≈ 36.5 to 73.1 µM); MIC (Phytophthora pini): 6.25 µg/mL; MIC (Stachybotrys chartarum): 6.25 to 12.5 µg/mL; Independent MIC (Rhizopus sp.; [5]): 12.5 µg/mL; MIC (Penicillium chrysogenum): 6.25 to 12.5 µg/mL; MIC (Candida albicans): 100 to 200 µg/mL; MIC [3]: 200 µg/mL
COC(=O)N(OC)c1ccccc1COc1ccn(-c2ccc(Cl)cc2)n1 [Pyraclostrobin, pyraclostrobin]	0.02 to 0.025 µg/mL (≈ 0.0516 to 0.0645 µM)	100 µg/mL	50 to 100 µg/mL	200 µg/mL	20 to 25 µg/mL	25 to 50 µg/mL	0.5 µg/mL	50 µg/mL	MIC [2]: 2 to 4 µg/mL; MIC (Aureobasidium pullulans; [4]): 0.188 to 0.78 µg/mL; MIC (Botrytis cinerea B17): 3.75 to 8 µg/mL; MIC [1]: 3.12 µg/mL; MIC (Fusarium graminearum): 200 µg/mL (≈ 516 µM); MIC (Phytophthora pini): 1.56 µg/mL; MIC (Stachybotrys chartarum): 1.56 to 4 µg/mL; MIC (Penicillium chrysogenum): 0.1 to 0.4 µg/mL; MIC [3]: 100 to 200 µg/mL
Fc1ccc(Oc2ccnc3cc(Cl)cc(Cl)c23)cc1 [Quinoxyfen, quinoxyfen]	–	–	–	50 to 100 µg/mL	–	–	–	100 to 200 µg/mL	–
O=[N+]([O-])c1c(Cl)c(Cl)c(Cl)c(Cl)c1Cl [Quintozene, quintozene]	–	–	–	–	–	–	–	–	Independent MIC (Botrytis cinerea 10-1728): 50 µg/mL; Independent MIC [1]: (25-50) μg/mL
C=CC1(C)OC(=O)N(c2cc(Cl)cc(Cl)c2)C1=O (stereo not shown) [Vinclozolin, vinclozolin]	–	100 to 200 µg/mL	–	100 to 400 µg/mL	100 to 200 µg/mL	50 to 100 µg/mL	4 to 5 µg/mL	100 µg/mL	MIC [2]: 6.25 to 16 µg/mL
CCC(C)(NC(=O)c1cc(Cl)c(C)c(Cl)c1)C(=O)CCl (stereo not shown) [Zoxamide, zoxamide]	–	–	–	0.39 to 1.6 µg/mL	–	–	–	–	–
